{"source": "patent US8053473B2", "about": "“Antibacterial agent comprising 7, 10-dihydroxy-8(E)-octadecenoic acid” (Kyung Pook National University Industry-Academic …, priority 2007, dated 2011)", "key": {"[1]": {"system": "Bacillus subtillis ATCC 6501", "experiment": "microbe, parasite or virus in culture", "format": "cell-based", "settings": "ATCC6501, liquid YPD medium, OD540 up to 24 hours, read-out: minimal inhibitory concentration"}, "[2]": {"system": "Ralstonia solanacearum KACC 10475", "experiment": "microbe, parasite or virus in culture", "format": "cell-based"}, "[3]": {"system": "Pseudomonas syringae pv. sesami KACC 10649", "format": "cell-based", "settings": "liquid medium; Gram negative; FIG. 8"}, "[4]": {"system": "Pseudomonas syringae pv. actinidae KACC 10659", "format": "cell-based", "settings": "liquid medium; Gram negative; FIG. 8"}, "[5]": {"system": "Erwinia sp. KACC 10207", "format": "cell-based", "settings": "liquid medium; Gram negative; FIG. 8"}, "[6]": {"system": "Pseudomonas syringae pv. syringae KACC 10361", "format": "cell-based", "settings": "liquid medium; Gram negative; FIG. 8"}, "[7]": {"system": "Corynebacterium glutamicum KACC 10784", "format": "cell-based", "settings": "liquid medium; Gram positive; FIG. 8"}, "[8]": {"system": "Xanthomonas axonopodis pv. citri KACC 10443", "experiment": "Growth inhibition in liquid medium 2", "format": "cell-based", "settings": "Gram negative, FIG. 8"}, "[9]": {"system": "Xanthomonas campestris KACC 10490", "format": "cell-based", "settings": "liquid medium; Gram negative; FIG. 8"}, "[10]": {"system": "Escherichia coli ATCC 8739", "experiment": "Antibacterial activity on solid agar medium 2", "settings": "Gram negative, FIG. 7"}, "[11]": {"system": "Staphylococcus epidermidis KCTC 1917", "experiment": "Antibacterial activity on solid agar medium 2", "settings": "Gram positive, FIG. 7"}, "[12]": {"system": "Listeria monocytogenes ATCC 19111", "experiment": "Antibacterial activity on solid agar medium 2", "settings": "Gram positive, FIG. 7"}, "[13]": {"system": "Staphylococcus aureus ATCC 6538", "experiment": "Antibacterial activity on solid agar medium 2", "settings": "Gram positive, FIG. 7"}, "[14]": {"system": "Bacillus subtilis ATCC 6501", "experiment": "Antibacterial activity on solid agar medium 2", "settings": "Gram positive, FIG. 7"}, "[15]": {"system": "Salmonella typhimurium KCTC 2515", "experiment": "Antibacterial activity on solid agar medium (clear zone around filter paper)"}, "[16]": {"system": "Staphylococcus aureus KCTC 1621", "experiment": "Antibacterial activity on solid agar medium (clear zone around filter paper)", "settings": "5 mg/spot, similar level with Bactroban (3 mg Mupirocin), FIG. 5"}}, "data": [{"smiles": "CCCCCCCC[C@H](O)/C=C/[C@@H](O)CCCCCC(=O)O", "note": "[DOD, 7,10-dihydroxy-8(E)-octadecenoic acid]", "values": [{"measurement": "MIC", "setting": "[1]", "value": "< 125", "unit": "µg/mL"}, {"measurement": "MIC", "setting": "[2]; Ralstonia solanacearum, KACC10475, 24 h, read-out: minimal inhibitory concentration", "value": "< 125", "unit": "µg/mL"}, {"measurement": "growth inhibitory effect", "setting": "[2]; liquid medium, Gram negative, FIG. 8", "value": "had growth inhibitory effect"}, {"measurement": "growth inhibitory effect", "setting": "[3]", "value": "had growth inhibitory effect"}, {"measurement": "growth inhibitory effect", "setting": "[4]", "value": "had growth inhibitory effect"}, {"measurement": "growth inhibitory effect", "setting": "[5]", "value": "had growth inhibitory effect"}, {"measurement": "growth inhibitory effect", "setting": "[6]", "value": "had growth inhibitory effect"}, {"measurement": "growth inhibitory effect", "setting": "[7]", "value": "had growth inhibitory effect"}, {"measurement": "growth inhibitory effect", "setting": "[8]", "value": "had growth inhibitory effect"}, {"measurement": "growth inhibitory effect", "setting": "[9]", "value": "had growth inhibitory effect"}, {"measurement": "antibacterial activity", "setting": "[10]", "value": "exhibited antibacterial activity"}, {"measurement": "antibacterial activity", "setting": "[11]", "value": "exhibited antibacterial activity"}, {"measurement": "antibacterial activity", "setting": "[12]", "value": "exhibited antibacterial activity"}, {"measurement": "antibacterial activity", "setting": "[13]", "value": "exhibited antibacterial activity"}, {"measurement": "antibacterial activity", "setting": "[14]", "value": "exhibited antibacterial activity"}, {"measurement": "antibacterial activity (clear zone)", "setting": "[15]; 5 mg/spot, similar level with Bactroban (3 mg Mupirocin), FIG. 5", "value": "high antibacterial activity"}, {"measurement": "antibacterial activity", "setting": "[15]; Gram negative, FIG. 7", "value": "exhibited antibacterial activity"}, {"measurement": "antibacterial activity (clear zone)", "setting": "[16]", "value": "high antibacterial activity"}]}]}
